pEC50, pIC50: −log10 of the molar value.
Key:
[1] = system: CCL17 secretion in peripheral human whole blood; assay: Human Whole Blood (HWB) CCL17 TR-FRET Assay (IL-13 stimulated CCL17 secretion); type: cell-based; conditions: human whole blood
Summary of the method: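 Heparinized peripheral human whole blood was preincubated with compound (11-point, 3-fold series, duplicate) for 2 h at 37 °C, then stimulated with IL-13 at 10 ng/mL final for 48 h at 37 °C. Secreted CCL17 in the serum was quantified by TR-FRET sandwich immunoassay (665/615 nm ratio, 16 h RT); IC50 derived.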

STAT6 = biological target: T1, STAT6 (Homo sapiens, UniProt P42226); assay: STAT6 Reporter Luciferase Assay (IL-13 stimulated HaCaT keratinocyte NanoLuc reporter cells); type: cell-based; conditions: IL-13 stimulated HaCaT STAT6 NanoLuc reporter cells; read-out: Reporter EC50
T1 construct: stably transfected HaCaT keratinocyte cell line, which expresses NanoLuc luciferase reporter gene under the transcriptional control of the STAT6 responsive promoter; endogenous in cells; host or cells: HaCaT keratinocyte reporter cell line (stably transfected with a NanoLuc reporter)
T1 sequence (P42226 1-847): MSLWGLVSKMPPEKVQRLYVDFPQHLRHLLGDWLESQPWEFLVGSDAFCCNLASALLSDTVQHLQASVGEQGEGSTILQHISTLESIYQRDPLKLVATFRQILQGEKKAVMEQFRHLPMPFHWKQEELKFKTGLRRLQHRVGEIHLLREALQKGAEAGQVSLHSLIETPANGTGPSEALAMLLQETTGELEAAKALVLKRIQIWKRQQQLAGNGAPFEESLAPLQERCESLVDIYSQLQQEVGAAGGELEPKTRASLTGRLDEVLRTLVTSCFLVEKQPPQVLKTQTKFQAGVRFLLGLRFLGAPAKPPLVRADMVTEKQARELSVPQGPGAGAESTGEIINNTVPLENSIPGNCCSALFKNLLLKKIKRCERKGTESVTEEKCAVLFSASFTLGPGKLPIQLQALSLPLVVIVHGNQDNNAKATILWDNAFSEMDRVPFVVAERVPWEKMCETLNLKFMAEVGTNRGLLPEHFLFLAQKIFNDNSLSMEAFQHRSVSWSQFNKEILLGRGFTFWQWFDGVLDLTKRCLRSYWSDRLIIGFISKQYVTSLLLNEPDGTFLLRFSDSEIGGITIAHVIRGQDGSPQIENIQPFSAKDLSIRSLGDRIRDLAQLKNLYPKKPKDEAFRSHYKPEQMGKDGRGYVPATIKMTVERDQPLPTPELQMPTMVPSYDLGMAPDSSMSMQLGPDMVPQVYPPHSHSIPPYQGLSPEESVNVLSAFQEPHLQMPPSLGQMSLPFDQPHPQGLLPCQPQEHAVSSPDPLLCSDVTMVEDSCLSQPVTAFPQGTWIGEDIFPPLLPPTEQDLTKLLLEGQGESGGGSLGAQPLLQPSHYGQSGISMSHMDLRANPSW
Summary of the method: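 IL-13 (0.12 nM, 4 h) stimulated STAT6 reporter activity in HaCaT cells after a 2 h compound pre-incubation; NanoLuc signal was measured.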

[2] = Homo sapiens, 48 h, IL-13 stimulated

| Compound | pIC50 [1, 2] | pEC50 (STAT6) | pIC50 ([1]; IL-13 stimulated, 48 hours) | pIC50 ([1]; 10 ng/mL IL13, 48 hours) | pIC50 ([1]; Homo sapiens, 48 h, 10 ng/mL IL13, 48 hours) |
| --- | --- | --- | --- | --- | --- |
| CCn1nc(C(=O)NCc2ccc(NC(=O)N(C)C)cc2)c2c1[C@@H](C)[C@H](C)N(c1ncc(C(=O)N(C)C)cn1)C2 (single isomer, unassigned) [Example 447] | < 6.38 | 9.40 | – | – | – |
| CC(C)n1nc(C(=O)NCc2ccc(NC(=O)N(C)C)cc2)c2c1[C@H](C)[C@@H](C)N(c1ncc(C(=O)N(C)C)cn1)C2 (single isomer, unassigned) [Example 448] | < 4.52 | 7.89 | – | – | – |
| CC(C)n1nc(C(=O)NCc2ccc(NC(=O)N(C)C)cc2)c2c1[C@@H](C)[C@H](C)N(c1ncc(C(=O)N(C)C)cn1)C2 (single isomer, unassigned) [Example 449] | 8.40 | 9.70 | – | – | – |
| CC(C)n1nc(C(=O)NCc2ccc(NC(=O)N(C)C)cc2)c2c1C(C(F)(F)F)CN(c1ncc(C(=O)N(C)C)cn1)C2 (single isomer, unassigned) [Example 461, rel-(R or S)-5-(5-(dimethylcarbamoyl)pyrimidin-2-yl)-N-(4-(3,3-dimethylureido)benzyl)-1-isopropyl-7-(trifluoromethyl)-4,5,6,7-tetrahydro-1H-pyrazolo[4,3-c]pyridine-3-carboxamide] | – | 9.70 | > 9.00 | – | – |
| CC(C)n1nc(C(=O)NCc2ccc(NC(=O)N(C)C)cc2)c2c1C(C(F)(F)F)CN(c1ncc(C(=O)N(C)C)cn1)C2 (single isomer, unassigned) [Example 462, rel-(R or S)-5-(5-(dimethylcarbamoyl)pyrimidin-2-yl)-N-(4-(3,3-dimethylureido)benzyl)-1-isopropyl-7-(trifluoromethyl)-4,5,6,7-tetrahydro-1H-pyrazolo[4,3-c]pyridine-3-carboxamide] | – | 7.41 | 6.42 | – | – |
| CCn1nc(C(=O)NCc2ccc(NC(=O)N(C)C)cc2)c2c1C(C(F)(F)F)CN(c1ncc(C(=O)N(C)C)cn1)C2 (single isomer, unassigned) [Example 464, rel-(R or S)-5-(5-(dimethylcarbamoyl)pyrimidin-2-yl)-N-(4-(3,3-dimethylureido)benzyl)-1-ethyl-7-(trifluoromethyl)-4,5,6,7-tetrahydro-1H-pyrazolo[4,3-c]pyridine-3-carboxamide] | – | 9.70 | 8.70 | – | – |
| CCn1nc(C(=O)NCc2ccc(NC(=O)N(C)C)cc2)c2c1C(C(F)(F)F)CN(c1ncc(C(=O)N(C)C)cn1)C2 (single isomer, unassigned) [Example 465, rel-(R or S)-5-(5-(dimethylcarbamoyl)pyrimidin-2-yl)-N-(4-(3,3-dimethylureido)benzyl)-1-ethyl-7-(trifluoromethyl)-4,5,6,7-tetrahydro-1H-pyrazolo[4,3-c]pyridine-3-carboxamide] | – | 7.29 | 6.17 | – | – |
| CCn1nc(C(=O)NCc2ccc(C(=O)NC)cc2)c2c1C(C(F)(F)F)CN(c1ccc(C(=O)N(C)C)cn1)C2 (single isomer, unassigned) [Example 467, rel-(R or S)-5-(5-(dimethylcarbamoyl)pyridin-2-yl)-1-ethyl-N-(4-(methylcarbamoyl)benzyl)-7-(trifluoromethyl)-4,5,6,7-tetrahydro-1H-pyrazolo[4,3-c]pyridine-3-carboxamide] | – | 6.50 | 5.60 | – | – |
| CCn1nc(C(=O)NCc2ccc(C(=O)NC)cc2)c2c1C(C(F)(F)F)CN(c1ccc(C(=O)N(C)C)cn1)C2 (single isomer, unassigned) [Example 468, rel-(R or S)-5-(5-(dimethylcarbamoyl)pyridin-2-yl)-1-ethyl-N-(4-(methylcarbamoyl)benzyl)-7-(trifluoromethyl)-4,5,6,7-tetrahydro-1H-pyrazolo[4,3-c]pyridine-3-carboxamide] | – | 8.66 | 7.92 | – | – |
| CC(C)n1nc(C(=O)NCc2ccc(NC(=O)N(C)C)cc2)c2c1C(O)CN(c1ccc(C(=O)N(C)C)cn1)C2 (single isomer, unassigned) [Example 474, rel-(R or S)-5-(5-(dimethylcarbamoyl)pyridin-2-yl)-N-(4-(3,3-dimethylureido)benzyl)-7-hydroxy-1-isopropyl-4,5,6,7-tetrahydro-1H-pyrazolo[4,3-c]pyridine-3-carboxamide] | – | 7.40 | 7.07 | – | – |
| CC(C)n1nc(C(=O)NCc2ccc(NC(=O)N(C)C)cc2)c2c1C(O)CN(c1ccc(C(=O)N(C)C)cn1)C2 (single isomer, unassigned) [Example 475, rel-(R or S)-5-(5-(dimethylcarbamoyl)pyridin-2-yl)-N-(4-(3,3-dimethylureido)benzyl)-7-hydroxy-1-isopropyl-4,5,6,7-tetrahydro-1H-pyrazolo[4,3-c]pyridine-3-carboxamide] | – | 7.14 | 6.67 | – | – |
| CC(C)n1nc(C(=O)NCc2ccc(NC(=O)N(C)C)cc2)c2c1C(C(F)F)CN(c1ccc(C(=O)N(C)C)cn1)C2 (single isomer, unassigned) [Example 493, rel-(R or S)-7-(difluoromethyl)-5-(5-(dimethylcarbamoyl)pyridin-2-yl)-N-(4-(3,3-dimethylureido)benzyl)-1-isopropyl-4,5,6,7-tetrahydro-1H-pyrazolo[4,3-c]pyridine-3-carboxamide] | – | 7.55 | 6.69 | – | – |
| CC(C)n1nc(C(=O)NCc2ccc(NC(=O)N(C)C)cc2)c2c1C(C(F)F)CN(c1ccc(C(=O)N(C)C)cn1)C2 (single isomer, unassigned) [Example 494, rel-(R or S)-7-(difluoromethyl)-5-(5-(dimethylcarbamoyl)pyridin-2-yl)-N-(4-(3,3-dimethylureido)benzyl)-1-isopropyl-4,5,6,7-tetrahydro-1H-pyrazolo[4,3-c]pyridine-3-carboxamide] | – | 9.30 | 8.40 | – | – |
| CC(C)n1nc(C(=O)NCc2ccc(NC(=O)N(C)C)cc2)c2c1CCN(c1ccc(C(=O)N(C)C)cn1)[C@@H]2C (single isomer, unassigned) [Example 506] | 7.85 | 8.70 | – | – | – |
| CC(C)n1nc(C(=O)NCc2ccc(NC(=O)N(C)C)cc2)c2c1CCN(c1ccc(C(=O)N(C)C)cn1)[C@H]2C (single isomer, unassigned) [Example 507] | 5.78 | 6.87 | – | – | – |
| CC(C)n1nc(C(=O)NCc2ccc(NC(=O)N(C)C)cc2)c2c1CCN(c1ncc(C(=O)N(C)C)cn1)[C@@H]2C (single isomer, unassigned) [Example 508] | 7.70 | 8.15 | – | – | – |
| CC(C)n1nc(C(=O)NCc2ccc(NC(=O)N(C)C)cc2)c2c1CCN(c1ncc(C(=O)N(C)C)cn1)[C@H]2C (single isomer, unassigned) [Example 509] | 5.09 | 5.48 | – | – | – |
| CCn1nc(C(=O)NCc2ccc(NC(=O)N(C)C)cc2)c2c1CCN(c1ncc(C(=O)N(C)C)cn1)[C@H]2C (single isomer, unassigned) [Example 510] | 5.05 | 5.82 | – | – | – |
| CCn1nc(C(=O)NCc2ccc(NC(=O)N(C)C)cc2)c2c1CCN(c1ncc(C(=O)N(C)C)cn1)[C@@H]2C (single isomer, unassigned) [Example 511] | 7.54 | 8.22 | – | – | – |
| CNC(=O)Nc1ccc(CNC(=O)c2nn(C(C)C)c3c2CN(c2ncc(-c4nccn4C)cn2)C[C@@H]3C)cc1 (single isomer, unassigned) [Example 515] | 8.22 | 9.00 | – | – | – |
| CC[C@H]1c2c(C(=O)NCc3ccc(NC(=O)N(C)C)cc3)nn(C(C)C)c2CCN1c1ccc(C(=O)N(C)C)cn1 (single isomer, unassigned) [Example 527] | – | 5.05 | – | < 4.60 | – |
| CC[C@H]1c2c(C(=O)NCc3ccc(NC(=O)N(C)C)cc3)nn(C(C)C)c2CCN1c1ccc(C(=O)N(C)C)cn1 (single isomer, unassigned) [Example 528] | – | 7.77 | – | 7.17 | – |
| CC(C)n1nc(C(=O)NCc2ccc(NC(=O)N(C)C)cc2)c2c1[C@@H](C)CN(c1ccc(C(=O)N(C)C)cn1)[C@@H]2C (single isomer, unassigned) [Example 529] | – | 10.00 | – | – | 8.40 |

Reference: patent US20250320213A1, “Nitrogen-Containing Heterocyclic Compounds” (Pfizer Inc., priority 2024, published 2025)
